Reference: US4562287A, “2-(4-Biphenylyl)-4-hexenoic acid and derivatives thereof having anti-inflammatory activity” (priority 1983, dated 1985)

Experiments:
[1] = tested on: Carragenine induced edema; experiment: Anti-inflammatory activity on carragenine induced edema (Table 11); assay type: in vivo; details: 50 mg/Kg p.o.
[2] = tested on: Carragenine induced edema; experiment: Carragenine induced edema, first test (Table 2); assay type: in vivo
Source text: |ANTI-INFLAMMATORY ACTIVITY. |Carragenine induced edema, first test.

[3] = tested on: Freund's adjuvant induced arthritis; experiment: Freund's adjuvant induced arthritis, edema inhibition
[4] = tested on: Joint's diameter; experiment: Joint's diameter in arthritis (Table 7); assay type: in vivo; parameters: unit not given here
[5] = tested on: SH Groups in serum; experiment: SH groups in serum (Table 8); assay type: in vivo; details: arthritis checks 70, 77
[6] = tested on: erytrocytes sedimetation rate (ESR); experiment: Erytrocytes sedimetation rate (ESR) (Table 8); assay type: in vivo; parameters: unit not given here; details: arthritis checks 41, 56
[7] = tested on: Cotton-pellets induced granuloma; experiment: Cotton-pellets induced granuloma; assay type: in vivo; details: 200 mg/Kg p.o.
Source text: | Cotton-pellets induced granuloma.

[8] = tested on: Serotonin edema; experiment: Edema induced by different substances: serotonin (Table 3); assay type: in vivo
Source text: (§1) |Edema induced by different substances.

[9] = tested on: Dextrose edema; experiment: Edema induced by different substances: dextrose (Table 3); assay type: in vivo
Source text: as §1

[10] = tested on: Kaolin edema; experiment: Edema induced by different substances: kaolin (Table 3); assay type: in vivo
Source text: as §1

[11] = tested on: Yeast edema; experiment: Edema induced by different substances: yeast (Table 3); assay type: in vivo
Source text: |Edema induced by different substances. | % edema inhibition

[12] = tested on: Carragenine edema; experiment: Edema induced by different substances: carragenine (Table 3); assay type: in vivo
Source text: as §1

[13] = tested on: Hot plate, endurance time at 52° C.; experiment: Analgesic activity, Hot plate (II); assay type: in vivo
Experimental: (§2) Dose endurance time at 52° C. over checks

[14] = tested on: Carragenine induced edema; experiment: Activity on carragenine induced edema (Table 9); assay type: in vivo
Source text: |Activity on carragenine induced edema.

[15] = tested on: Hot plate, endurance time at 52° C.; experiment: Analgesic activity, Hot plate (I); assay type: in vivo; details: 50 mg/Kg p.o., 2 hours
Experimental: as §2

[16] = in vivo; details: po, rat, p.o., read-out: DL50 (the source's name)
[17] = tested on: pain threshold; experiment: Analgesic activity, RANDALL-SELLITO pain threshold; assay type: in vivo
Source text: | RANDALL-SELLITO pain threshold

SMILES: CC(=O)Oc1ccccc1C(=O)O [Acetylsalicylic acid, reference compound]
- % inhibition [1]: 23%

SMILES: CC(C)Cc1ccc(C(C)C(=O)O)cc1 (stereo not shown) [Ibuprofen]
- % inhibition ([2]; 12.5 mg/Kg p.o.): 27%
- % inhibition ([2]; 25 mg/Kg p.o.): 33%
- % inhibition ([2]; 50 mg/Kg p.o.): 47%
- % inhibition ([2]; 100 mg/Kg p.o.): 54%
- Edema inhibition % ([3]; 20 mg/Kg p.o., 2 days): 34%
- Edema inhibition % ([3]; 20 mg/Kg p.o., 4 days): 29%
- Edema inhibition % ([3]; 20 mg/Kg p.o., 8 days): 19%
- Edema inhibition % ([3]; 20 mg/Kg p.o., 12 days): 24%
- Edema inhibition % ([3]; 20 mg/Kg p.o., 16 days): 14%
- Edema inhibition % ([3]; 20 mg/Kg p.o., 24 days): 4%
- Edema inhibition % ([3]; 40 mg/Kg p.o., 2 days): 32%
- Edema inhibition % ([3]; 40 mg/Kg p.o., 4 days): 17%
- Edema inhibition % ([3]; 40 mg/Kg p.o., 8 days): 26%
- Edema inhibition % ([3]; 40 mg/Kg p.o., 12 days): 19%
- Edema inhibition % ([3]; 40 mg/Kg p.o., 16 days): 27%
- Edema inhibition % ([3]; 40 mg/Kg p.o., 20 days): 19%
- Edema inhibition % ([3]; 40 mg/Kg p.o., 24 days): 9%
- Joint's diameter ([4]; 20 mg/Kg p.o., 1 week, arthritis checks 0.48, 0.38): 0.31
- Joint's diameter ([4]; 20 mg/Kg p.o., 2 weeks, arthritis checks 0.71, 0.75): 0.53
- Joint's diameter ([4]; 20 mg/Kg p.o., 3 weeks, arthritis checks 0.81, 0.79): 0.65
- Joint's diameter ([4]; 20 mg/Kg p.o., 4 weeks, arthritis checks 0.85, 0.89): 0.81
- Joint's diameter ([4]; 40 mg/Kg p.o., 1 week, arthritis checks 0.48, 0.38): 0.35
- Joint's diameter ([4]; 40 mg/Kg p.o., 2 weeks, arthritis checks 0.71, 0.75): 0.60
- Joint's diameter ([4]; 40 mg/Kg p.o., 3 weeks, arthritis checks 0.81, 0.79): 0.75
- Joint's diameter ([4]; 40 mg/Kg p.o., 4 weeks, arthritis checks 0.85, 0.89): 0.80
- % inhibition [1]: 40%
- SH groups diminution in % ([5]; 20 mg/Kg p.o.): 78%
- SH groups diminution in % ([5]; 40 mg/Kg p.o.): 73%
- E.S.R. ([6]; 20 mg/Kg p.o.): 58
- E.S.R. ([6]; 40 mg/Kg p.o.): 30

SMILES: CCCCC1C(=O)N(c2ccccc2)N(c2ccc(O)cc2)C1=O (stereo not shown) [Oxyphenbutazone, reference compound]
- % inhibition [1]: 41%
- % inhibition [7]: 24%

SMILES: CCCCC1C(=O)N(c2ccccc2)N(c2ccccc2)C1=O [PHENYL-BUTAZONE, phenylbutazone, reference compound]
- % edema inhibition ([8]; 50 mg/Kg p.o.): 24%
- % edema inhibition ([8]; 100 mg/Kg p.o.): 12%
- % edema inhibition ([8]; 200 mg/Kg p.o.): 25%
- % edema inhibition ([9]; 50 mg/Kg p.o.): 0%
- % edema inhibition ([9]; 100 mg/Kg p.o.): 0%
- % edema inhibition ([9]; 200 mg/Kg p.o.): 18%
- % inhibition ([2]; 75 mg/Kg p.o.): 43%
- % inhibition ([2]; 150 mg/Kg p.o.): 46%
- % edema inhibition ([10]; 50 mg/Kg p.o.): 41%
- % edema inhibition ([10]; 100 mg/Kg p.o.): 40%
- % edema inhibition ([10]; 200 mg/Kg p.o.): 53%
- % edema inhibition ([11]; 50 mg/Kg p.o.): 7%
- % edema inhibition ([11]; 100 mg/Kg p.o.): 23%
- % edema inhibition ([11]; 200 mg/Kg p.o.): 18%
- % edema inhibition ([12]; 50 mg/Kg p.o.): 13%
- % edema inhibition ([12]; 100 mg/Kg p.o.): 32%
- % edema inhibition ([12]; 200 mg/Kg p.o.): 61%

SMILES: CC=CCC(C(=O)O)c1ccc(-c2ccc(F)cc2)cc1 (stereo not shown) [SCR 159, 2-[4-biphenylyl-(4' fluoro)]4-hexenoic acid]
- endurance time at 52° C. over checks ([13]; Hot plate (II), 35,6 mg/Kg p.o., 1 hour): 22
- endurance time at 52° C. over checks ([13]; Hot plate (II), 35,6 mg/Kg p.o., 2 hours): 43
- endurance time at 52° C. over checks ([13]; Hot plate (II), 53,45 mg/Kg p.o., 1 hour): 45
- endurance time at 52° C. over checks ([13]; Hot plate (II), 53,45 mg/Kg p.o., 2 hours): 29
- endurance time at 52° C. over checks ([13]; Hot plate (II), 80,18 mg/Kg p.o., 1 hour): 26
- Inhibition % ([14]; 53 mg/Kg p.o.): 29%
- Inhibition % ([14]; 80 mg/Kg p.o.): 26%
- Inhibition % ([14]; 120 mg/Kg p.o.): 26%
- endurance time at 52° C. over checks [15]: 38
- LD50 [16]: 900 mg/kg
- % inhibition [1]: 32%
- RANDALL-SELLITO pain threshold over checks ([17]; 23,7 mg/Kg p.o., 1 hour): 55
- RANDALL-SELLITO pain threshold over checks ([17]; 23,7 mg/Kg p.o., 2 hours): 7
- RANDALL-SELLITO pain threshold over checks ([17]; 35,6 mg/Kg p.o., 1 hour): 49
- RANDALL-SELLITO pain threshold over checks ([17]; 35,6 mg/Kg p.o., 2 hours): 32
- RANDALL-SELLITO pain threshold over checks ([17]; 53,45 mg/Kg p.o., 1 hour): 47
- RANDALL-SELLITO pain threshold over checks ([17]; 53,45 mg/Kg p.o., 2 hours): 16
